One data set deals with central nervous system. The data set can be described thus: Neuropharmacological screening, overall findings. Conditions: of all the salts derived. In kind it is in vivo, mice. On the procedure:
(§1) The myorelaxing effect of the new compounds was tested by the method of the "rotating rod"(Dunham N. W., Miga T. S., A note on a simplex apparatus for detecting neurological deficit in rat and mice, J. Am. Pharm. Ass., 1957, vol. 46, No. 3, pp. 208-209), which allows one to record any abnormalities in coordination and balance, as well as ataxia. The mice in the laboratory tests were placed on a horizontal rod, 2 cm in diameter, rotating at a speed of 5 revolutions per minute. The object was to register the number of mice which were able to maintain equilibrium on the rod for two minutes. Any presence of a myorelaxing component was considered to be a side effect of the substance being studied.

For data set [1], the system named is mice. The data set can be described thus: Rotating rod: myorelaxation and movement coordination. The class given is in vivo, white crossbred mice. Particulars: same dosage range (0.1 to 150 mg/kg), entire test period 3.5 hours. On the procedure: as §1
For data set [2], the system named is mice. As to the kind of experiment: Orientation reflexes: test of ascent onto an inclined net. Particulars: 0.1 to 150 mg/kg.

Where a name gives a salt, the structure may show the parent alone.

Consider `CC(C)(CO)C(=O)C(=O)NCCCC(=O)O` [KPA-Ca, calcium salt of ketopantoyl aminobutyrate], for which the “properties compared with the other salts” value in the data set on central nervous system is “best properties”. The “ataxia, myorelaxation, loss of movement coordination” value in the data set with mice [1] is given as “did not induce any ataxia, myorelaxation or loss of movement coordination”. Moreover, the “effect on exploratory behaviour” value in the data set with mice [2] was “does not disturb the "exploratory" behaviour”.

The values are drawn from patent US5705687A, “Neurotropic drug and method for preparation of same” (priority 1993, dated 1998).
